The record followed here is patent US20180118708A1, “CYCLIC COMPOUND” (Takeda Pharmaceutical Company Limited, priority 2015, published 2018).

One test has as its target T1, TLR4 (Mus musculus, UniProt Q9QUK6).
T1 construct: endogenous in cells; host or cells: RAW264.7 (murine macrophage cell line)
T1 sequence (Q9QUK6 26-835): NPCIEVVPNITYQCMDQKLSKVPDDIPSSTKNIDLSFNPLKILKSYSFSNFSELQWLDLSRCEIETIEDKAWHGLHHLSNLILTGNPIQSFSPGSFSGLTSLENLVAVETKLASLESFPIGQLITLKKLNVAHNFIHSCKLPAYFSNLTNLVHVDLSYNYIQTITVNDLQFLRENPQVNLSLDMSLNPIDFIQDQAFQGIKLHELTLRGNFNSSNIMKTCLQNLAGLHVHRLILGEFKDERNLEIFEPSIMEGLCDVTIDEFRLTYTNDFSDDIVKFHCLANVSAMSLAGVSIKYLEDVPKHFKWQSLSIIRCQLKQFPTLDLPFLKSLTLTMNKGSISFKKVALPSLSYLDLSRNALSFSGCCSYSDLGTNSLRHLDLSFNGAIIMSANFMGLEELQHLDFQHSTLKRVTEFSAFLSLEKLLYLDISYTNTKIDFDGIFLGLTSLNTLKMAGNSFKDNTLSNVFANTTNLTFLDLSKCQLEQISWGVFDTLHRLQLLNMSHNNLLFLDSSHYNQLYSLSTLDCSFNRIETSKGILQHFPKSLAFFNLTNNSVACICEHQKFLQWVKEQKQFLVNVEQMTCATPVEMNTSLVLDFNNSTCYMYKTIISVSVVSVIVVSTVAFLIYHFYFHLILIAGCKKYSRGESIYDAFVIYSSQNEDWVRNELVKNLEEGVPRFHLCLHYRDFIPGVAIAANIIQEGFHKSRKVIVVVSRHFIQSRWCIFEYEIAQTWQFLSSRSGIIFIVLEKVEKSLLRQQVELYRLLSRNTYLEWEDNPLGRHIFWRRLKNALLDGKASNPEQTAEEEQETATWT
T1 sequence (Q9JHF9 19-160 partner): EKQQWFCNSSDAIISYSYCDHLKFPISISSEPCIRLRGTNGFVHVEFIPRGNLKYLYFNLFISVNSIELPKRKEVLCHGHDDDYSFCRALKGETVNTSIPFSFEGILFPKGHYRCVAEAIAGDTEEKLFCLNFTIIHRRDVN
The experiment in a line: Inhibitory effect with respect to NO production (LPS/interferon γ stimulated RAW264.7 cells). To be noted: test compound 100 nM, LPS 1.25 ng/mL + mouse interferon γ 0.2 ng/mL, nitrite ion in culture supernatant. The class given is cell-based, murine. Here is the method:
Inhibitory Effect With Respect to NO Production
The inhibitory effect on TLR4 was determined using the inhibition rate due to the test compound with respect to NO production as a result of addition of lipopolysaccharide (LPS) using murine macrophage cell line RAW264.7. The cells were adjusted to 2×10^6 cells/mL using RPM1-1640 culture medium (phenol red free) supplemented with 10% inactivated bovine fetal serum, and were plated on 384 well plate so as to contain 6×10^4 cells/30 μL per well. Thereafter the cells were cultured at 37° C. overnight under 5% CO2/95% air. The test compound dissolved in DMSO was diluted 200 times using RPM1-1640 culture medium and adjusted so as to form a compound concentration of 500 nM. The prepared test compound 10 μL (final concentration 100 nM) was added to the cells, and LPS (Sigma) and mouse interferon γ (Wako Pure Chemicals) were added in amounts of 10 μL so as to form final concentrations of 1.25 ng/mL and 0.2 ng/mL respectively. The cells were further cultured overnight, and then the nitrite ion (stable NO metabolite) concentration in the culture supernatant was measured as an index of NO production. The nitrite ion concentration was assayed by adding 10 μL of 20 μg/mL 2,3-diamino naphthalene (DAN) dissolved in 0.2N HCl to 20 μL culture supernatant, incubating at room temperature for ten minutes, and then adding 10 μL of 0.5N NaOH, and measuring the fluorescent value at 460 nm (excitation wavelength 355 nm) using an EnVision plate reader (Perkin Elmer). The NO production inhibition rate (%) was calculated using the value without the addition of stimulating agent as control of 100% inhibition, and the value without the addition of the compound as control of 0% inhibition.

In another test the test system is TNFα. The experiment in a line: Effect with respect to blood TNF-α concentration elevation by LPS stimulation. The class given is in vivo. To be noted: Dose 20 mg/kg, oral; female BALB/c mice; LPS 5 mg/kg i.p. one hour after compound; serum sampled one hour later; vs control group. The source says: Effect With Respect to Blood TNF-α Concentration Elevation by LPS Stimulation
Various kinds of cytokines are produced in vivo accompanying inflammatory response and abnormal immunity or the like. Therefore, the action of test compound with respect to blood TNFa concentration rise was investigated using laboratory animals.
Female BALB/c mice (6 weeks old) were purchased, and, after preliminary rearing for about 1 week, the mice were divided into groups of four animals. […] Solvent was administered to control group in the same way. LPS (5 mg/kg) was administered intraperitoneally to the test group and the control group one hour after the administration of the test compound or solvent, and blood was sampled one hour later. The serum was separated from the obtained blood, and the TNFα concentration in the serum was measured using an assay kit made by R&D Systems Inc. The inhibition rates of the test group with respect to the control group are shown in Table 3.

Molecules are shown by their SMILES.

`CCOC(=O)C1=CC2(CCC1S(=O)(=O)Cc1cccc(C)c1)O[C@@H](CO)[C@H](CO)O2` (stereo partly drawn) [Compound 25, ethyl (2S,3S)-2,3-bis(hydroxymethyl)-8-((3-methylbenzyl)sulfonyl)-1,4-dioxaspiro[4.5]dec-6-ene-7-carboxylate]: the “NO production inhibitory effect at 100 nM (% inhibition)” value on TLR4 is 98 % inhibition. Further, in the test on TNFα, the “Blood TNFα inhibition rate (% inhibition)” value stood at 93.8 % inhibition.
For `CCOC(=O)C1=CC2(CCC1S(=O)(=O)Cc1ccc(F)cc1Cl)O[C@H](CO)[C@@H](CO)O2` (stereo partly drawn) [Compound 2, ethyl (2R,3R)-8-((2-chloro-4-fluorobenzyl)sulfonyl)-2,3-bis(hydroxymethyl)-1,4-dioxaspiro[4.5]dec-6-ene-7-carboxylate], the “NO production inhibitory effect at 100 nM (% inhibition)” value on TLR4 turned out to be 106 % inhibition. In addition, the “Blood TNFα inhibition rate (% inhibition)” value with TNFα was determined as 84.5 % inhibition.
